Measured values published in PubChem BioAssay AID1963870 (Molecular Pharmacology Branch, DTP, NCI, 2024).

System: 292921-168-R-J2-PDC KRAS tumor spheroid viability
Assay: Anticancer human tumor 292921-168-R-J2-PDC patient-derived pancreatic carcinoma cell line growth inhibition [KRAS2]
Details: spheroids with HUVEC and MSC; for viability, T/C: stronger effect = lower value
Procedure, shortened: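 Combination screen of spheroid viability in tumor-cell co-cultures with endothelial (HUVEC) and mesenchymal stem cell stroma. Each agent was tested in half-log dilutions, topping at clinical Cmax or at 10 microM without a known Cmax.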

[1] = curve of first compound, second compound 0.1 µM
[2] = curve of first compound, second compound 0.316 µM
[3] = curve of first compound, second compound 1 µM
[4] = curve of first compound, second compound 3.16 µM
[5] = curve of first compound, second compound 10 µM
[6] = second compound 0.1 µM, first compound 0.0316 µM
[7] = second compound 0.1 µM, first compound 0.1 µM
[8] = second compound 0.1 µM, first compound 0.316 µM
[9] = second compound 0.1 µM, first compound 1 µM
[10] = second compound 0.1 µM, first compound 3.16 µM
[11] = second compound 0.316 µM, first compound 0.0316 µM
[12] = second compound 0.316 µM, first compound 0.1 µM
[13] = second compound 0.316 µM, first compound 0.316 µM
[14] = second compound 0.316 µM, first compound 1 µM
[15] = second compound 0.316 µM, first compound 3.16 µM
[16] = second compound 1 µM, first compound 0.0316 µM
[17] = second compound 1 µM, first compound 0.1 µM
[18] = second compound 1 µM, first compound 0.316 µM
[19] = second compound 1 µM, first compound 1 µM
[20] = second compound 1 µM, first compound 3.16 µM
[21] = second compound 3.16 µM, first compound 0.0316 µM
[22] = second compound 3.16 µM, first compound 0.1 µM
[23] = second compound 3.16 µM, first compound 0.316 µM
[24] = second compound 3.16 µM, first compound 1 µM
[25] = second compound 3.16 µM, first compound 3.16 µM
[26] = second compound 10 µM, first compound 0.0316 µM
[27] = second compound 0.1 µM, first compound 0.01 µM
[28] = second compound 0.316 µM, first compound 0.01 µM
[29] = second compound 1 µM, first compound 0.01 µM
[30] = second compound 3.16 µM, first compound 0.01 µM
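Also: drug exposure lasted seven days after spheroids formed for three days.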
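For viability, T/C in this document: percent of DMSO vehicle control viability which is 100%.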

CC(=O)OC12COC1CC(O)C1(C)C(=O)C(O)C3=C(C)C(OC(=O)C(O)C(NC(=O)OC(C)(C)C)c4ccccc4)CC(O)(C(OC(=O)c4ccccc4)C21)C3(C)C (centres undefined)
viability, T/C (compound 0.01 µM): 14.3% [middle of 5 runs]
viability, T/C (compound 0.0316 µM): 14.3% [middle of 5 runs]
viability, T/C (compound 0.1 µM): 12.4% [middle of 5 runs]
viability, T/C (compound 0.316 µM): 12.8% [middle of 5 runs]
viability, T/C (compound 1 µM): 13.8% [middle of 5 runs]
viability, T/C (compound 3.16 µM): 17.6% [middle of 5 runs]
IC50 (curve of compound): < 10 nM

COC(=O)c1ccc2c(C(=Nc3ccc(N(C)C(=O)CN4CCN(C)CC4)cc3)c3ccccc3)c(O)[nH]c2c1 + C=CC(=O)N1CCN(c2nc(=O)n(-c3c(C)ccnc3C(C)C)c3nc(-c4c(O)cccc4F)c(F)cc23)C(C)C1
IC50 [1]: < 31.6 nM
IC50 [2]: < 31.6 nM
IC50 [3]: 58.8 nM
IC50 [4]: 41.8 nM
IC50 [5]: < 31.6 nM
viability, T/C [6]: 44.2%
viability, T/C [7]: 39.2%
viability, T/C [8]: 30.9%
viability, T/C [9]: 18.8%
viability, T/C [10]: 11.9%
viability, T/C (second compound 0.1 µM, first compound 10 µM): 0.29%
viability, T/C [11]: 48.4%
viability, T/C [12]: 40.6%
viability, T/C [13]: 25.3%
viability, T/C [14]: 20.1%
viability, T/C [15]: 5.83%
viability, T/C (second compound 0.316 µM, first compound 10 µM): 0.17%
viability, T/C [16]: 56.8%
viability, T/C [17]: 43.7%
viability, T/C [18]: 29.2%
viability, T/C [19]: 15.8%
viability, T/C [20]: 2.31%
viability, T/C (second compound 1 µM, first compound 10 µM): 0.19%
viability, T/C [21]: 52.8%
viability, T/C [22]: 41.5%
viability, T/C [23]: 25.7%
viability, T/C [24]: 16.9%
viability, T/C [25]: 2.53%
viability, T/C (second compound 3.16 µM, first compound 10 µM): 0.13%
viability, T/C [26]: 38.1%
viability, T/C (second compound 10 µM, first compound 0.1 µM): 36.4%
viability, T/C (second compound 10 µM, first compound 0.316 µM): 24.8%
viability, T/C (second compound 10 µM, first compound 1 µM): 19.2%
viability, T/C (second compound 10 µM, first compound 3.16 µM): 3.45%
viability, T/C (second compound 10 µM, first compound 10 µM): 0.21%

CC(=O)OC12COC1CC(O)C1(C)C(=O)C(O)C3=C(C)C(OC(=O)C(O)C(NC(=O)OC(C)(C)C)c4ccccc4)CC(O)(C(OC(=O)c4ccccc4)C21)C3(C)C (centres undefined) + C=CC(=O)N1CCN(c2nc(OCC3CCCN3C)nc3c2CCN(c2cccc4cccc(C)c24)C3)CC1CC#N
IC50 (curve of first compound, second compound 0.0316 µM): < 10 nM
IC50 [1]: < 10 nM
IC50 [2]: < 10 nM
IC50 [3]: < 10 nM
IC50 [4]: < 10 nM
viability, T/C (second compound 0.0316 µM, first compound 0.01 µM): 12.8%
viability, T/C (second compound 0.0316 µM, first compound 0.0316 µM): 14.4%
viability, T/C (second compound 0.0316 µM, first compound 0.1 µM): 10.5%
viability, T/C (second compound 0.0316 µM, first compound 0.316 µM): 11.3%
viability, T/C (second compound 0.0316 µM, first compound 1 µM): 13.3%
viability, T/C (second compound 0.0316 µM, first compound 3.16 µM): 17.1%
viability, T/C [27]: 13.8%
viability, T/C [6]: 12%
viability, T/C [7]: 9.84%
viability, T/C [8]: 9.08%
viability, T/C [9]: 12.5%
viability, T/C [10]: 14.9%
viability, T/C [28]: 11.8%
viability, T/C [11]: 9.96%
viability, T/C [12]: 8.56%
viability, T/C [13]: 9.75%
viability, T/C [14]: 15.3%
viability, T/C [15]: 14.3%
viability, T/C [29]: 8.08%
viability, T/C [16]: 6.89%
viability, T/C [17]: 6.48%
viability, T/C [18]: 7.06%
viability, T/C [19]: 6.74%
viability, T/C [20]: 7.91%
viability, T/C [30]: 15.1%
viability, T/C [21]: 13.7%
viability, T/C [22]: 11.1%
viability, T/C [23]: 11.6%
viability, T/C [24]: 14%
viability, T/C [25]: 18.2%

COC(=O)c1ccc2c(C(=Nc3ccc(N(C)C(=O)CN4CCN(C)CC4)cc3)c3ccccc3)c(O)[nH]c2c1
viability, T/C (compound 3.16 µM): 6.78% [middle of 5 runs]
viability, T/C (compound 10 µM): 0.34% [middle of 5 runs]

CC(=O)Nc1cccc(-n2c(=O)n(C3CC3)c(=O)c3c(Nc4ccc(I)cc4F)n(C)c(=O)c(C)c32)c1 + COc1cc2nc(C)nc(NC(C)c3cc(N)cc(C(F)(F)F)c3)c2cc1OC1CCOC1
IC50 [1]: 0.23 nM
IC50 [2]: 0.165 nM
IC50 [3]: 0.119 nM
IC50 [4]: 0.105 nM
IC50 [5]: < 0.1 nM
viability, T/C (second compound 0.1 µM, first compound 0.0001 µM): 72.3%
viability, T/C (second compound 0.1 µM, first compound 0.000316 µM): 40.4%
viability, T/C (second compound 0.1 µM, first compound 0.001 µM): 25.4%
viability, T/C (second compound 0.1 µM, first compound 0.00316 µM): 16.1%
viability, T/C [27]: 11.3%
viability, T/C [6]: 8.07%
viability, T/C (second compound 0.316 µM, first compound 0.0001 µM): 57.4%
viability, T/C (second compound 0.316 µM, first compound 0.000316 µM): 40.9%
viability, T/C (second compound 0.316 µM, first compound 0.001 µM): 22%
viability, T/C (second compound 0.316 µM, first compound 0.00316 µM): 15.7%
viability, T/C [28]: 12%
viability, T/C [11]: 8.27%
viability, T/C (second compound 1 µM, first compound 0.0001 µM): 53.6%
viability, T/C (second compound 1 µM, first compound 0.000316 µM): 31.5%
viability, T/C (second compound 1 µM, first compound 0.001 µM): 20.9%
viability, T/C (second compound 1 µM, first compound 0.00316 µM): 13.8%
viability, T/C [29]: 11.5%
viability, T/C [16]: 8.01%
viability, T/C (second compound 3.16 µM, first compound 0.0001 µM): 51.5%
viability, T/C (second compound 3.16 µM, first compound 0.000316 µM): 29.2%
viability, T/C (second compound 3.16 µM, first compound 0.001 µM): 19.1%
viability, T/C (second compound 3.16 µM, first compound 0.00316 µM): 12.4%
viability, T/C [30]: 10.3%
viability, T/C [21]: 8.26%
viability, T/C (second compound 10 µM, first compound 0.0001 µM): 18.4%
viability, T/C (second compound 10 µM, first compound 0.000316 µM): 14.6%
viability, T/C (second compound 10 µM, first compound 0.001 µM): 15%
viability, T/C (second compound 10 µM, first compound 0.00316 µM): 11.9%
viability, T/C (second compound 10 µM, first compound 0.01 µM): 8.42%
viability, T/C [26]: 8.34%
